Assay [1] addresses 1-acylglycerol-3-phosphate O-acyltransferase ABHD5/Perilipin-5 (Homo sapiens, UniProt Q00G26+Q8WTS1). Description: Luminescence-based biochemical high throughput dose response assay for inhibitors of the interaction of the lipase co-activator protein, abhydrolase domain containing 5 (ABHD5) with perilipin-5 (MLDP; PLIN5) (2K validation set). [Related pubchem assays (depositor defined):AID493035, AID493241].

Assay [2] has as its target Perilipin-1/ABHD5 (Homo sapiens, UniProt O60240+Q8WTS1). Description: Luminescence-based biochemical high throughput dose response assay for inhibitors of the interaction of the lipase co-activator protein, abhydrolase domain containing 5 (ABHD5) with perilipin-1 (PLIN1) (2K validation set). [Related pubchem assays (depositor defined):AID493027, AID493057].
Assay [3] deals with Prothrombin (Homo sapiens, UniProt P00734). Briefly: Thrombin 1536 HTS Dose Response Confirmation. [Related pubchem assays: 1046 (Thrombin 1536 HTS; hits were confirmed in this assay)]. In kind it is functional.
Assay [4] concerns the target T1, Coagulation factor XII (Homo sapiens, UniProt P00748).
T1 sequence (P00748 whole entry): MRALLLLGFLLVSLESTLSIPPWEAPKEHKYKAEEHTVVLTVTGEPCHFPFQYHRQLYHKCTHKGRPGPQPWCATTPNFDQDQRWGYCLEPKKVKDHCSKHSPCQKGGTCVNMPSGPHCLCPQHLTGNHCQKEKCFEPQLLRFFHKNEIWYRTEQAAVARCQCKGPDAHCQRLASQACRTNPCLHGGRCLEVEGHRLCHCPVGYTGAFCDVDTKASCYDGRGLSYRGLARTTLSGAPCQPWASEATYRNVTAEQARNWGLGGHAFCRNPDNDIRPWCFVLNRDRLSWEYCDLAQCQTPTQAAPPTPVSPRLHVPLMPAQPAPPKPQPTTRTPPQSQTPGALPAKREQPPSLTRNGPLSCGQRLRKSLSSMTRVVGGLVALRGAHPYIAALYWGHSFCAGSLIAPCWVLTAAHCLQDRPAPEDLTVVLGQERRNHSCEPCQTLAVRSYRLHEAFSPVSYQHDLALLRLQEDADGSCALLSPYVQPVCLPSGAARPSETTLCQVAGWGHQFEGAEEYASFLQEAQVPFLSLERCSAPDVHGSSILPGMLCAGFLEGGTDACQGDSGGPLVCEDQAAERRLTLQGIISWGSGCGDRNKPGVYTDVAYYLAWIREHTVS
Description: Factor XIIa Dose Response Confirmation from Single Well HTS. [Related pubchem assays (depositor defined):AID701]. It counts as functional.

For assay [5], the target named is T2, Protein skinhead-1 (Caenorhabditis elegans, UniProt P34707).
T2 sequence (P34707 whole entry): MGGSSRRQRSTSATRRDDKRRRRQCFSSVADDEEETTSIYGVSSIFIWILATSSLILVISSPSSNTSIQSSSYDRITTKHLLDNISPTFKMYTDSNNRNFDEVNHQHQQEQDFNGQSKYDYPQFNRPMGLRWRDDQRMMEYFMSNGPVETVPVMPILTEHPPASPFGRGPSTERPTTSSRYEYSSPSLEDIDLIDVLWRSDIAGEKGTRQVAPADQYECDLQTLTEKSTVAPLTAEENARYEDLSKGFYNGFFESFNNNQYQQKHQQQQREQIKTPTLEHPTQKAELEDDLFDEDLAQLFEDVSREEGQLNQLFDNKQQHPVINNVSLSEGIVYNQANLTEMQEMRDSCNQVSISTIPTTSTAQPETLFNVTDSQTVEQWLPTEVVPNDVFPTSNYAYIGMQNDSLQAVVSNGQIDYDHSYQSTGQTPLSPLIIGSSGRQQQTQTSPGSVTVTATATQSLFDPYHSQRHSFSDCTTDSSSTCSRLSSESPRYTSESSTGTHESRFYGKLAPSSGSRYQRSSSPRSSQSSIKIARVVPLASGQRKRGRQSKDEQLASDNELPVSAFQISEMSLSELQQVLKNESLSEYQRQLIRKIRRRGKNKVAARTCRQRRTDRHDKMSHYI
In kind it is functional.

In assay [6] the target is T3, Runt-related transcription factor 1/Core-binding factor subunit beta (Homo sapiens, UniProt Q01196+Q13951). Description: disruptors of Runt domain/CBFb-SMMHC interaction – biochemical, FRET, Cerulean-Runt, Venus-CBFb-SMMHC, uHTS, […] (AID 1434). It counts as protein assay.
Assay [7] deals with SUMO-activating enzyme (Homo sapiens, UniProt Q9UBT2). Description: blockers of UBC9-mediated SUMO conjugation – biochemical, AlphaScreen, SUMOylation inhibitor project, confirmation (AID 2018). In kind it is functional.
Assay [8] concerns the target T3, Runt-related transcription factor 1/Core-binding factor subunit beta. Description: Runt domain/CBFb-SMMHC interaction disruptors – biochemical, TR-FRET (AID 1438). It counts as protein assay.
The target of assay [9] is Integrin alpha-L (Mus musculus, UniProt P24063). Description: modulators of CD8 T cell-vesicle binding, dose response, powder samples, mouse 2C CD8+ cells (AID 504565). In kind it is functional.
The target in assay [10] is T4, Sphingosine 1-phosphate receptor 4 (Homo sapiens, UniProt O95977).
T4 sequence (O95977 whole entry): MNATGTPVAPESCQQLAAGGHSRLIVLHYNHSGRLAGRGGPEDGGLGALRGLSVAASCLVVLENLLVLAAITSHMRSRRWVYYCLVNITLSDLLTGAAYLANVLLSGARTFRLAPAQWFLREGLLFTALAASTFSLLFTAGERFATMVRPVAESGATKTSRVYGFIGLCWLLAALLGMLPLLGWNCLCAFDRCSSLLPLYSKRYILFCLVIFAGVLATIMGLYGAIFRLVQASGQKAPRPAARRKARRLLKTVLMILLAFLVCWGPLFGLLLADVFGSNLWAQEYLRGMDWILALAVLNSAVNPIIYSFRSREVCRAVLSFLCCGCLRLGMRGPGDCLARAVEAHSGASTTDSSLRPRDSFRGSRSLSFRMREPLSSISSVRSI
Description: potency of S1P4 activators – cell-based, fluorescence, synthesized compounds, late-stage follow-up (AID 463107). In kind it is functional.

For assay [11], the target named is T4, Sphingosine 1-phosphate receptor 4. Description: Late-stage fluorescence dose response cell-based assay to identify agonists of the Sphingosine 1-Phosphate Receptor 4 (S1P4): purchased compounds EC50. [Related pubchem assays (depositor defined):AID1509, AID1523, AID1563, AID1686, AID1701, AID1801]. In kind it is functional.
Assay [12] deals with Mu-type opioid receptor (Homo sapiens, UniProt P35372). Briefly: SAR Analysis of Antagonists of the MOR Receptor using an Image-Based Assay - Set 3. [Related pubchem assays (depositor defined):AID1777, AID1785, AID1786, AID1966, AID2133, AID2136, AID2284, AID2285, AID2420]. It counts as functional.
The target in assay [13] is Delta-type opioid receptor (Homo sapiens, UniProt P41143). Briefly: SAR Analysis of Antagonists of the DOR Receptor using an Image-Based Assay - Set 3. [Related pubchem assays (depositor defined):AID1777, AID1785]. It counts as functional.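 Also: U2OS cells expressing DOR1 and beta-arrestin GFP stimulated with 100 nM SNC80; imaging of GFP-tagged beta-arrestin moving into spots after receptor activation.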
The target in assay [14] is T5, Kappa-type opioid receptor (Homo sapiens, UniProt P41145). Briefly: SAR analysis of small molecule antagonists of the kappa opioid receptor via a luminescent beta-arrestin assay - Set 3. [Related pubchem assays (depositor defined):AID1777, AID1778, AID1785, AID1786, AID1966, AID2133, AID2136, AID2285, AID2495]. In kind it is functional.
Assay [15] addresses T5, Kappa-type opioid receptor. Briefly: SAR analysis of Antagonists of the Kappa Opioid Receptor (KOR) using an Image-Based Assay - Set 3. [Related pubchem assays (depositor defined):AID1777, AID1785]. It counts as functional.
Assay [16] addresses CAAX prenyl protease 2 (Saccharomyces cerevisiae S288c, UniProt Q03530). It counts as biochemical.
Assay [17] concerns the target T6, Hexokinase HKDC1 (Homo sapiens, UniProt Q2TB90).
T6 sequence (Q2TB90 whole entry): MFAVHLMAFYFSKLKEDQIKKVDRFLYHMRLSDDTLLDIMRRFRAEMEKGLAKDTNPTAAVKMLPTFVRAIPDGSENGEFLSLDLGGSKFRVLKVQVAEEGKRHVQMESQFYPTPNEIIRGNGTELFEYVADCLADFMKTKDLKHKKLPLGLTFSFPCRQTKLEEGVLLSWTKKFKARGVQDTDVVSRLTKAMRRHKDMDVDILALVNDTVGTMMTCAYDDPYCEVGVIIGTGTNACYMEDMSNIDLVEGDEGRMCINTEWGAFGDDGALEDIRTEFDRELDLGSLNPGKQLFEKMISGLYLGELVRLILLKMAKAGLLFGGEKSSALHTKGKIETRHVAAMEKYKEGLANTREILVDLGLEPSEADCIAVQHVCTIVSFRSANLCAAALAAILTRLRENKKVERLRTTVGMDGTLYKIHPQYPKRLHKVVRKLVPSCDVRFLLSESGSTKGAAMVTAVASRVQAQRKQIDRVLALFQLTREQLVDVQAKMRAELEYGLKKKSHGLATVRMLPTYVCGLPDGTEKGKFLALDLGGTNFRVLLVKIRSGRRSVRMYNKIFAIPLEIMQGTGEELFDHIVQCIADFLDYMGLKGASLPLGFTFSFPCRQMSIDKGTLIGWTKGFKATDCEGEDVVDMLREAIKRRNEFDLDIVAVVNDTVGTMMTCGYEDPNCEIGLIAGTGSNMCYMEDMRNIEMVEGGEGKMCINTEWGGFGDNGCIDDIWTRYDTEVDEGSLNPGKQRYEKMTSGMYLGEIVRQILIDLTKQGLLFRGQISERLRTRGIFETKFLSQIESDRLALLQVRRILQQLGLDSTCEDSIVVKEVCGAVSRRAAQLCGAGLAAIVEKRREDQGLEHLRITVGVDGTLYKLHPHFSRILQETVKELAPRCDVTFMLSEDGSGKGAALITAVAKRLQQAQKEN
Briefly: activation of HKDC1 glucose phosphorylation – biochemical, W721R variant, dose response (AID 504730). In kind it is functional.

Assay [18] has as its target Nonstructural protein 1 (Influenza A virus, UniProt Q194T2). In kind it is functional, Influenza A virus (A/California/07/2009(H1N1)).
The target in assay [19] is Hexokinase-1 (Homo sapiens, UniProt P19367). Description: HK1 enzyme activation by HKDC1 hits – biochemical, selectivity assay for HKDC1 activator project, dose response (AID 504762). It counts as functional.
Assay [20] concerns the target Alkaline phosphatase, placental type (Homo sapiens, UniProt P05187). Description: human placental alkaline phosphatase inhibition – biochemical, luminescence, confirmation (AID 1512). It counts as functional.
Assay [21] deals with T7, Alkaline phosphatase, tissue-nonspecific isozyme (Homo sapiens, UniProt P05186).
T7 sequence (P05186 whole entry): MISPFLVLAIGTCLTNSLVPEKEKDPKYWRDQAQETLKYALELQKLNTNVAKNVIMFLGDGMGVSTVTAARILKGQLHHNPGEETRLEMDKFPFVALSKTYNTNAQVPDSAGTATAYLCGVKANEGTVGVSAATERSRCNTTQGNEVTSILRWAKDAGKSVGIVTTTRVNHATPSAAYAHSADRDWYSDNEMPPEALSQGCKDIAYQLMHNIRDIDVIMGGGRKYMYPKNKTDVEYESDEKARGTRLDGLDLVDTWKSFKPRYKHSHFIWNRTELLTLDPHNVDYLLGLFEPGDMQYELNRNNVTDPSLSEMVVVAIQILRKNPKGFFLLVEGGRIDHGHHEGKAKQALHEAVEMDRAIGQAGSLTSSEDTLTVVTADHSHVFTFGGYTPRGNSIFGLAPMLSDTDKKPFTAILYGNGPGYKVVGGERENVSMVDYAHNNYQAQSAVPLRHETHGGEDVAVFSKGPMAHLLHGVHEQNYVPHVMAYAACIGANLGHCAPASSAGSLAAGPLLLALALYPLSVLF
Description: potency against alkaline phosphatase TNAP – biochemical, luminescent, dose response, SAR follow-up (AID 1056).

In assay [22] the target is Hexokinase (Trypanosoma brucei, UniProt Q38C41). Briefly: Confirmation assay for inhibitors of Trypanosoma brucei hexokinase 1-Analogue-first series. [Related pubchem assays (depositor defined):AID1430, AID1632, AID2516, AID2560, AID2579, AID2600, AID449725, AID492951]. In kind it is functional.

Among the data in ChEMBL document CHEMBL1201862, “PubChem BioAssay data set” (2004) are IC50, EC50 and AC50 values, retold here.

Where “and” joins values, the source holds several entries; their conditions need not be identical. Equal entries are not always repeated. Calls of active or inactive are those of the source. Bounds are passed on as bounds.

T3 sequence (Q01196 whole entry, the tested form may be a part): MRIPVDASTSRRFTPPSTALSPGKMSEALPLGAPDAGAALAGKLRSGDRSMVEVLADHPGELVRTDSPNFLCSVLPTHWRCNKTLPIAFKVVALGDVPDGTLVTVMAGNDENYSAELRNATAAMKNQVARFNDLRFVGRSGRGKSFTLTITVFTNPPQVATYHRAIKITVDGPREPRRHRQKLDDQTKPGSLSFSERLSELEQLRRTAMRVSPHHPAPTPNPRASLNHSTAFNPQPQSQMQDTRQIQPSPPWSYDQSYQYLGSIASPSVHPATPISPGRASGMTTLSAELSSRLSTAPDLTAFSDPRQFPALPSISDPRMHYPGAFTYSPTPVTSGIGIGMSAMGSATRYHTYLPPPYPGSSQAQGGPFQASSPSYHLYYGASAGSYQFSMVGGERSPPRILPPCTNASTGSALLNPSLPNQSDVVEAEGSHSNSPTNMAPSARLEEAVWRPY
T3 sequence (Q13951 whole entry, the tested form may be a part): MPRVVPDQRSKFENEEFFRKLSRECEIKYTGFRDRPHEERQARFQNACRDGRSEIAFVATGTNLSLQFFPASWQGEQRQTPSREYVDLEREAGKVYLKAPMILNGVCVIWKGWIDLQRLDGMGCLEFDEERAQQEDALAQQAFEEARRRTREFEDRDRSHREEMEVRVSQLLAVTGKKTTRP
T5 sequence (P41145 whole entry): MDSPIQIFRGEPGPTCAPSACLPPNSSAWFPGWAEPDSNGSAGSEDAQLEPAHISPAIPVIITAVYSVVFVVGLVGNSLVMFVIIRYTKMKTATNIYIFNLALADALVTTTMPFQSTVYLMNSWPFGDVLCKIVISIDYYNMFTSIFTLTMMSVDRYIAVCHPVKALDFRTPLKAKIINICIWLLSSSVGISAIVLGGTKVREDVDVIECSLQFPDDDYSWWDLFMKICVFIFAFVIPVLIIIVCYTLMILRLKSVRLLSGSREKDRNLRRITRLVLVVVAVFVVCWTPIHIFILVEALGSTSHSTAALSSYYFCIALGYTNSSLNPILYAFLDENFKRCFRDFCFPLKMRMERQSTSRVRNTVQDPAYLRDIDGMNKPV
Sequence of Nonstructural protein 1 (Q194T2 whole entry): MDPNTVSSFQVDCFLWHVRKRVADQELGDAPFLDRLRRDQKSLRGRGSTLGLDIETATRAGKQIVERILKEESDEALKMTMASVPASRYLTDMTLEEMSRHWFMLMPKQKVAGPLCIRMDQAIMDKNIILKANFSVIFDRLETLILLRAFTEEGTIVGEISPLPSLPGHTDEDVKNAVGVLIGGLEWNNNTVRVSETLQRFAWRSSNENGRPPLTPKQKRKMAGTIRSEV
Sequence of Integrin alpha-L (P24063 whole entry): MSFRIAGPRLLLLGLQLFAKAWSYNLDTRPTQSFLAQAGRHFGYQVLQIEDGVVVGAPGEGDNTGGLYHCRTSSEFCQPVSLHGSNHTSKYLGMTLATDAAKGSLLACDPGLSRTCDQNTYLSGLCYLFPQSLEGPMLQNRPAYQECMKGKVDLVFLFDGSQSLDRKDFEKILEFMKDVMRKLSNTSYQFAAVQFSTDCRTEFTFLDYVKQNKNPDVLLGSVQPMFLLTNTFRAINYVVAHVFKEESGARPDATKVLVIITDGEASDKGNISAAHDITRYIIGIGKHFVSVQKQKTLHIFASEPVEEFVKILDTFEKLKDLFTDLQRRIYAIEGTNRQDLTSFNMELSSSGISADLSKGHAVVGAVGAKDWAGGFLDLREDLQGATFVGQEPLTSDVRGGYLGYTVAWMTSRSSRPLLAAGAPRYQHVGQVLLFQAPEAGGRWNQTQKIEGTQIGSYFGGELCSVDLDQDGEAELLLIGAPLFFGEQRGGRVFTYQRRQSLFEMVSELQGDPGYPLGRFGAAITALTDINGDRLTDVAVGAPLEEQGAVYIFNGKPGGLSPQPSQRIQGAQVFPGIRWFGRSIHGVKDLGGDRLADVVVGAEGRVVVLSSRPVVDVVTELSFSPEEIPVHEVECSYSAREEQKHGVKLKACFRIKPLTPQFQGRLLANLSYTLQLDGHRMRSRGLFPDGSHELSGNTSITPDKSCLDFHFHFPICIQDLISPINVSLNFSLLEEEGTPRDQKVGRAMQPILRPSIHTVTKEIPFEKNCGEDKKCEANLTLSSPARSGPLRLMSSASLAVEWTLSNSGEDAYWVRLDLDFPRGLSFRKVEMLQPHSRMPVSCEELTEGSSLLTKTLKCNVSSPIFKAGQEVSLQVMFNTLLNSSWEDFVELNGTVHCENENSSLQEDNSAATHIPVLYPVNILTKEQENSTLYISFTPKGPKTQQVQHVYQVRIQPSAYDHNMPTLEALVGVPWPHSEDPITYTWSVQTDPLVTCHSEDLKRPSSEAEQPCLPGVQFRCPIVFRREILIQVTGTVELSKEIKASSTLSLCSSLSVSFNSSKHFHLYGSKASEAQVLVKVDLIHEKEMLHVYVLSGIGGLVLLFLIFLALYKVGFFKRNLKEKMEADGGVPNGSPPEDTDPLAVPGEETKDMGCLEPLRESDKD
Sequence of Hexokinase (Q38C41 whole entry): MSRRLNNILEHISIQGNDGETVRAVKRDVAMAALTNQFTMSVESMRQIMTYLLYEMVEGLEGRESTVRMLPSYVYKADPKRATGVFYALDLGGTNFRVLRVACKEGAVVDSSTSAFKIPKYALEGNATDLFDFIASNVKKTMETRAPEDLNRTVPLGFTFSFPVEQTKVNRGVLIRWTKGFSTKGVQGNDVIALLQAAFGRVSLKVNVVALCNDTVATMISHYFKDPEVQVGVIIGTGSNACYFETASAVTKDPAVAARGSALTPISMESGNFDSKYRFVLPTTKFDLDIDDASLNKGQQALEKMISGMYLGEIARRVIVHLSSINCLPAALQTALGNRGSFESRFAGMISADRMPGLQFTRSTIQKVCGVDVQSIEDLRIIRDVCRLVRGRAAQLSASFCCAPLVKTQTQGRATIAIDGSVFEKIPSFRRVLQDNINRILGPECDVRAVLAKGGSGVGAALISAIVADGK
Sequence of CAAX prenyl protease 2 (Q03530 whole entry): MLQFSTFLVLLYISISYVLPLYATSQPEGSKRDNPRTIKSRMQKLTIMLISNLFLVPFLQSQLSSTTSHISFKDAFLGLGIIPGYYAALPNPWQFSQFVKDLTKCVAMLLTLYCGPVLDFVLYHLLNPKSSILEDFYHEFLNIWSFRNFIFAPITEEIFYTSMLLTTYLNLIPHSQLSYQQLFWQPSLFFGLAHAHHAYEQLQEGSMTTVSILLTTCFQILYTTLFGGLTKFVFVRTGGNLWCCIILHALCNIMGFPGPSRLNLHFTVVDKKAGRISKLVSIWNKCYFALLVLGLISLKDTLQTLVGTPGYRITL
Sequence of Delta-type opioid receptor (P41143 whole entry): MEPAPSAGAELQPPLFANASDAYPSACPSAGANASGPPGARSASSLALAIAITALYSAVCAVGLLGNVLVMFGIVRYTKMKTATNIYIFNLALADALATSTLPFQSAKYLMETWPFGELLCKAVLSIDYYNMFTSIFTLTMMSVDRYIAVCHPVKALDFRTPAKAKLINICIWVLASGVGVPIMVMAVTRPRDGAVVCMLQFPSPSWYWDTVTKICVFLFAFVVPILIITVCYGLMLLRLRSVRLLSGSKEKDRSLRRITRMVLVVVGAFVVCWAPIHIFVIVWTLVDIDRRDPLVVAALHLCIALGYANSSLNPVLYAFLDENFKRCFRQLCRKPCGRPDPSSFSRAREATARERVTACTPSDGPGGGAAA
Sequence of Alkaline phosphatase, placental type (P05187 whole entry): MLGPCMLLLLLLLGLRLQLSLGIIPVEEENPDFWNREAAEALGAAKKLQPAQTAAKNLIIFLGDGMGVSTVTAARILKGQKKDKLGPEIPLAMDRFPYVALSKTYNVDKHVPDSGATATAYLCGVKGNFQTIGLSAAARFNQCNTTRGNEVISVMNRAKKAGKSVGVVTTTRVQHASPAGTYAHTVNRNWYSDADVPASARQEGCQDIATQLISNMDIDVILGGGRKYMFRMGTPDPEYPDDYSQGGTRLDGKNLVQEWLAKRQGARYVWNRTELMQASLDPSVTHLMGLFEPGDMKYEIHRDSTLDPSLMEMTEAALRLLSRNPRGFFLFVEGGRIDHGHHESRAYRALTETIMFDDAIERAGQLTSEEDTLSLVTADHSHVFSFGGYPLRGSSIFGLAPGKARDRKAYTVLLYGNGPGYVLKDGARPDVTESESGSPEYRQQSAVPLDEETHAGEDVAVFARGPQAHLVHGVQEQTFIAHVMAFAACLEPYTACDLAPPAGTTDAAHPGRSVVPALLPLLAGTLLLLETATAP
Sequence of 1-acylglycerol-3-phosphate O-acyltransferase ABHD5/Perilipin-5 (Q00G26 whole entry, the tested form may be a part): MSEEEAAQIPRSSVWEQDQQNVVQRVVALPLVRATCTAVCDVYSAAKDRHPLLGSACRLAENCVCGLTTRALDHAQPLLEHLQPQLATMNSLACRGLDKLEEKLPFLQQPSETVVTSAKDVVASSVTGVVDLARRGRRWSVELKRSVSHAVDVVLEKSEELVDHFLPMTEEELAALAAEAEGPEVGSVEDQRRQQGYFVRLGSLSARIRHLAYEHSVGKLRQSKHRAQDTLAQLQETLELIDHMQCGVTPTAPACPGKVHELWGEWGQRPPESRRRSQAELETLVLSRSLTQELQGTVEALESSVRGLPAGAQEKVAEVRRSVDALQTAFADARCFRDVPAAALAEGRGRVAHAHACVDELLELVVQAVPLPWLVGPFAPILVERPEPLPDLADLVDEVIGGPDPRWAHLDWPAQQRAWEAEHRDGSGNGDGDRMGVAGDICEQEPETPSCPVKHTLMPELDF
Sequence of 1-acylglycerol-3-phosphate O-acyltransferase ABHD5/Perilipin-5 (Q8WTS1 whole entry, the tested form may be a part): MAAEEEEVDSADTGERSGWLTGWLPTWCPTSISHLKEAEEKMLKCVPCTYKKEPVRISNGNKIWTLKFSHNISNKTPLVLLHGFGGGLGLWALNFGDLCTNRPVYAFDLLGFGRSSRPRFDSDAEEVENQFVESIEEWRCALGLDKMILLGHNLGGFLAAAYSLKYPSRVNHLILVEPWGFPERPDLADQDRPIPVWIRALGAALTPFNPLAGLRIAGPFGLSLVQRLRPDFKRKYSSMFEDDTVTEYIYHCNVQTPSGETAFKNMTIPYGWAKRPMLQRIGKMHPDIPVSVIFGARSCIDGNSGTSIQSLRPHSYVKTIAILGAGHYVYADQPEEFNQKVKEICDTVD

In the case of `O=C(CN1CC[n+]2c(-c3cccs3)csc21)c1ccc(Br)cc1`, the results for the IC50 in [1] and in [2] were 14.8 µM (inactive) and 27.5 µM (inactive), respectively.
`Cc1ccc(C(=O)n2nc(-c3cccnc3)nc2N)cc1`: the values for the IC50 in assay [3], in assay [4] and in [5] were 0.543 µM (active), 0.796 µM (active) and > 100 µM (inactive), respectively.
`N=c1c(S(=O)(=O)c2ccccc2)cc2c(=O)n3ccccc3nc2n1Cc1ccco1`: the IC50 is 3.38 µM (active) in assay [6], 6.01 µM (active) in assay [7] and 57.5 µM (inactive) in [8].
With `Cc1ccccc1C(=O)N1CCC(C(=O)Nc2ccc(C)c(S(=O)(=O)N3CCCCC3)c2)CC1`, the EC50 in assay [9] was 29.1 µM (inactive).
For `Cc1ccc(OCCOc2ccc(Br)cc2)c([N+](=O)[O-])n1`, the EC50 in assay [10] is > 50 µM (inactive); in assay [11] it was 20.7 µM (inactive) and 23.3 µM (inactive).
Take `CCN(CCNC(=O)c1ccc(CNS(=O)(=O)c2ccc(OC)cc2)cc1)Cc1ccccc1`: the IC50 is 12.6 µM (inactive) in assay [12], > 32 µM (inactive) in assay [13], 16.3 µM (inactive) in assay [14] and 10.8 µM (inactive) in assay [15].
Take `O=C(CCNC(=O)N1CC(=O)Nc2ccccc21)NCCc1cccc(F)c1`: the AC50 in assay [16] is 0.359 µM (active).
Turning to `S=C(NN=C(c1ccccc1)c1ccccn1)N(Cc1ccccn1)Cc1ccccn1`, the values for the EC50 in assay [17] and in assay [19] were 1.78 µM (active) and > 80 µM (inactive), respectively. Further, in assay [18], the IC50 was 2.59 µM (active).
As to `O=C(NC1(C(Cl)(Cl)Cl)Oc2ccccc2O1)OCN1C(=O)C2C=CC=CC2C1=O` (configuration not stated), the IC50 in [20] and in assay [21] was > 100 µM (inactive) throughout.
Regarding `CC(C)(C)c1ccc(C(=O)Nc2cc(Cl)ccc2-c2nnn[nH]2)cc1`, the IC50 in assay [22] is 3.46 µM (active).
